{"source": "patent US9815883B2", "about": "“Inhibiting peptides derived from TREM-like transcript 1 (TLT-1) and uses thereof” (Institut National de la Sante et de la Recherche Medicale …, priority 2010, dated 2017)", "key": {"[1]": {"tested_on": "TREM-1", "experiment": "NF-kB activity measurement (nuclear p50/p65 ELISA) in neutrophils", "assay_type": "cell-based, human", "conditions": "LPS 0.1 μg/mL with or without αTREM-1; peptide 30 μg/mL", "description": "(C) NF-κB nuclear translocation: ELISA of nuclear p50 and p65 NF-kB subunits of neutrophils treated for 2 hours.\nStimulated cells were collected, nuclear extracts obtained by nuclear extraction kit and NFkB activity measured with human p50/p65 combo transcription factor assay kit (Cayman Chemical) following the manufacturers' instructions."}, "[2]": {"tested_on": "TREM-1 ligand binding to immobilized TREM-1", "experiment": "Surface plasmon resonance, LPS-stimulated neutrophils supernatants on rsTREM-1-coated sensor chip", "design": "species or system human", "conditions": "FIG. 1D", "description": "(C-D) Surface plasmon resonance assays of LPS-stimulated neutrophils supernatants to a rsTREM-1-coated sensorship in absence (C) or presence (D) of LR17.\nDetection of TREM-1-ligand on LPS-stimulated neutrophils supernatants was assessed by binding to a recombinant soluble form of TREM-1 (rsTREM-1) coated on a CM5 sensor chip with the BIAcore X instrument at 25° C. with a flow rate of […]. Binding specificity was verified through competition with the soluble rsTREM-1. Inhibition of TREM-1-ligand binding by LR17 was assessed."}, "[3]": {"tested_on": "TREM-1", "experiment": "Cytokine expression and production by stimulated neutrophils and monocytes", "assay_type": "cell-based, human", "description": "(E) Cytokines expression: TNF-α mRNA levels in neutrophils stimulated for 6 hours.\n(F) Cytokines production: ELISA of TNF-α in neutrophils treated for 2, 6 and 24 hours\n(F) Cytokines expression: TNF-α mRNA levels in neutrophils stimulated for 6 hours.\n(G-H) Cytokines production: ELISA of TNF-α, in neutrophils treated for 2, 6 and 24 hours.\nDepending on the experiment, cells were stimulated in complete medium supplemented with 100 ng/mL of E. Coli LPS (0111:B4, Sigma-Aldrich), anti-TREM-1 mAb (R&Dsystems) and TLT-1-peptides at different times and concentrations on 96-wells plates (Greiner Bio One). Supernatants were collected for cytokine measurements and cells subjected to flow cytometry or lysed for protein phosphorylation analyses and NFkB activity measurement.\nCytokines in supernatants of stimulated human cells or mouse plasma were measured by ELISA (human and mouse Quantikine ELISA kits, R&Dsystems) and cytokines panel assays (Proteome Profiler Human Cytokine Array Kit, Panel A and Proteome Profiler Mouse Cytokine Array Kit, Panel A, R&Dsystems) according to manufacturers' recommendations."}}, "note": "Entries after “also recorded” stand apart in the source; their conditions may differ.", "data": [{"sequence": "LQEEDAGEYGCMVDGAR (listed as Homo sapiens) [LR17]", "values": [{"measurement": "NF-κB translocation", "setting": "[1]", "result": "decreased"}, {"measurement": "binding of the TREM-1 ligand to immobilized TREM-1", "setting": "[2]", "result": "able to block the binding"}, {"measurement": "production of TNF-α, IL-6, IL-8, GRO-α, IL-1β, IL-16, MCP-1, MIP-1β and RANTES (broad cytokine arrays)", "setting": "[3]", "result": "decreased production"}, {"measurement": "LPS associated TNF-α secretion by neutrophils and monocytes, gene and protein level", "setting": "[3]; LPS", "result": "dose-dependently reduced"}, {"measurement": "synergy of αTREM-1 with LPS for cytokine production", "setting": "[3]; LPS + αTREM-1", "result": "blocked; also recorded: abrogated"}, {"measurement": "effects in human monocytes and upon TLR2 (Pam3SK4) stimulation", "setting": "[3]; not shown", "result": "confirmed to occur"}, {"measurement": "cytokine production by activated neutrophils, gene and protein levels (TNF-α, IL-6, IL-8)", "setting": "[3]; αTREM-1 5 μg/mL, peptide 30 μg/mL", "result": "able to decrease cytokine production"}, {"measurement": "αTREM-1 induced TNF-α production by neutrophils", "setting": "[3]; αTREM-1 alone", "result": "abrogated"}]}]}
